In patent US11399542B2, “Pesticidally active heterocyclic derivatives with sulfur containing substituents” (SYNGENTA PARTICIPATIONS AG, priority 2017, dated 2022):

How the values were obtained:
[1] = system: Plutella xylostella (Diamond Back Moth); experiment: Example B3: Activity against Plutella xylostella, artificial diet, L2 larvae; assay type: in vivo; settings: 120 h, application rate 200 ppm, L2 larvae on artificial diet, 5 days after infestation, read-out: effect in at least one of the two categories (mortality or growth inhibition)
Experimental: (§1) 24-well microtiter plates with artificial diet were treated with aqueous test solutions prepared from 10′000 ppm DMSO stock solutions by pipetting. After drying, the plates were infested with L2 larvae (10 to 15 per well). The samples were assessed for mortality and growth inhibition in comparison to untreated samples 5 days after infestation.

[2] = system: Myzus persicae (Green Peach Aphid); experiment: Example B6: Activity against Myzus persicae, systemic via roots of pea seedlings; assay type: in vivo; settings: 144 h, test rate 24 ppm, pea seedling roots in test solution, 6 days
Experimental: Roots of pea seedlings infested with an aphid population of mixed ages were placed directly in the aqueous test solutions prepared from 10′000 DMSO stock solutions. The samples were assessed for mortality 6 days after placing seedlings in test solutions.

[3] = system: Frankliniella occidentalis (Western Flower Thrips); experiment: Example B8: Activity against Frankliniella occidentalis, sprayed sunflower leaf discs; assay type: in vivo; settings: foliar, 168 h, application rate 200 ppm, mixed ages on sunflower leaf discs, 7 days after infestation
Experimental: Sunflower leaf discs were placed on agar in 24-well microtiter plates and sprayed with aqueous test solutions prepared from […] stock solutions. After drying the leaf discs were infested with a Frankliniella population of mixed ages. The samples were assessed for mortality 7 days after infestation.

[4] = system: Euschistus heros (Neotropical Brown Stink Bug); experiment: Example B9: Activity against Euschistus heros, sprayed soybean leaf; assay type: in vivo; settings: 120 h, application rate 200 ppm, N2 nymphs on soybean leaf, 5 days after infestation, read-out: effect in at least one of the two categories (mortality or growth inhibition)
Experimental: Soybean leaf on agar in 24-well microtiter plates were sprayed with aqueous test solutions prepared from 10′000 ppm DMSO stock solutions. After drying the leaf were infested with N2 nymphs. The samples were assessed for mortality and growth inhibition in comparison to untreated samples 5 days after infestation.

[5] = system: Myzus persicae (Green Peach Aphid); experiment: Example B5: Activity against Myzus persicae, sprayed sunflower leaf discs; assay type: in vivo; settings: foliar, 144 h, application rate 200 ppm, mixed-age aphids on sunflower leaf discs, 6 days after infestation
Experimental: Sunflower leaf discs were placed on agar in a 24-well microtiter plate and sprayed with aqueous test solutions prepared from 10′000 ppm DMSO stock solutions. After drying, the leaf discs were infested with an aphid population of mixed ages. The samples were assessed for mortality 6 days after infestation.

[6] = system: Diabrotica balteata (Corn Root Worm); experiment: Example B4: Activity against Diabrotica balteata, sprayed maize sprouts; assay type: in vivo; settings: 96 h, application rate 200 ppm, L2 larvae on maize sprouts, 4 days after infestation, read-out: effect in at least one of the two categories (mortality or growth inhibition)
Experimental: as §1, with “Maize sprouts placed onto an agar layer in 24-well” for “24-well”, “plates” for “plates with artificial diet”, “spraying.” for “pipetting.”, “(6” for “(10”, “10” for “15”, “4” for “5”

[7] = system: Spodoptera littoralis (Egyptian Cotton Leaf Worm); experiment: Example B1: Activity against Spodoptera littoralis, sprayed cotton leaf discs; assay type: in vivo; settings: foliar, 72 h, application rate 200 ppm, L1 larvae on cotton leaf discs, 3 days after infestation, read-out: control (at least one of mortality, anti-feedant effect, growth inhibition)
Experimental: Cotton leaf discs were placed onto agar in 24-well microtiter plates and sprayed with aqueous test solutions prepared from 10′000 ppm DMSO stock solutions. After drying the leaf discs were infested with five L1 larvae. The samples were assessed for mortality, anti-feeding effect, and growth inhibition in comparison to untreated samples 3 days after infestation. Control of Spodoptera littoralis by a test sample is given when at least one of the categories mortality, anti-feedant effect, and growth inhibition is higher than the untreated sample.

[8] = system: Bemisia tabaci (Cotton White Fly); experiment: Example B7: Activity against Bemisia tabaci, sprayed cotton leaf discs; assay type: in vivo; settings: foliar, 144 h, application rate 200 ppm, adult white flies on cotton leaf discs, 6 days after incubation
Experimental: Cotton leaf discs were placed on agar in 24-well microtiter plates and sprayed with aqueous test solutions prepared from 10′000 ppm DMSO stock solutions. After drying the leaf discs were infested with adult white flies. The samples were checked for mortality 6 days after incubation.

[9] = system: Spodoptera littoralis (Egyptian Cotton Leaf Worm); experiment: Example B2: Activity against Spodoptera littoralis, systemic via lettuce roots in agar; assay type: in vivo; settings: 144 h, test rate 12.5 ppm, lettuce root uptake, 6 days after infestation, read-out: effect in at least one of the three categories (mortality, anti-feeding, or growth inhibition)
Text: Test compounds were applied by pipette from 10′000 ppm DMSO stock solutions into 24-well plates and mixed with agar. Lettuce seeds were placed onto the agar and the multi well plate was closed by another plate which contained also agar. After 7 days the compound was absorbed by the roots and the lettuce grew into the lid plate. The lettuce leaves were then cut off into the lid plate. Spodoptera eggs were pipetted through a plastic stencil onto a humid gel blotting paper and the lid plate was closed with it. The samples were assessed for mortality, anti-feedant effect and growth inhibition in comparison to untreated samples 6 days after infestation.

[10] = system: Plutella xylostella (Diamond Back Moth); experiment: Example B12: Activity against Plutella xylostella, artificial diet, eggs; assay type: in vivo; settings: 192 h, application rate 200 ppm, eggs on artificial diet, 8 days after infestation, read-out: effect in at least one of the two categories (mortality or growth inhibition)
Experimental: as §1, with “drying, Plutella eggs were pipetted through a plastic stencil onto a gel blotting paper and” for “drying,”, “plate was closed” for “plates were infested”, “it.” for “L2 larvae (10 to 15 per well).”, “8” for “5”

melting point | Compound | percent effect (mortality or growth inhibition) at 200 ppm [1] | mortality at 24 ppm [2] | mortality at 200 ppm [3] | percent effect (mortality or growth inhibition) at 200 ppm [4] | mortality at 200 ppm [5] | percent effect (mortality or growth inhibition) at 200 ppm [6] | percent control (mortality, anti-feedant effect or growth inhibition) at 200 ppm [7] | mortality at 200 ppm [8] | percent effect (mortality, anti-feeding or growth inhibition) at 12.5 ppm [9] | percent effect (mortality or growth inhibition) at 200 ppm [10]
255 to 257 °C | CCSc1cc2c(cc1-c1nc3cc(C(F)(F)F)cnc3n1C)n(C#N)c(=O)n2C | – | – | – | – | – | – | – | – | – | –
186 to 188 °C | CCSc1cc2c(cc1-c1nc3cc(C(F)(F)F)cnc3n1C)n(C)c(=O)n2CC | – | – | – | – | – | – | – | – | – | –
206 to 208 °C | CCSc1cc2c(cc1-c1nc3cc(SC(F)(F)F)ccc3o1)n(C)c(=O)n2C | – | – | – | – | – | – | – | – | – | –
205 to 207 °C | CCSc1cc2c(cc1-c1nc3cc(C(F)(F)F)ccc3o1)n(C)c(=O)n2C | – | – | – | – | – | – | – | – | – | –
– | CCn1c(=O)n(C)c2cc(-c3nc4cc(C(F)(F)F)ncc4n3C)c(S(=O)(=O)CC)cc21 [Compound P4, 1-ethyl-6-ethylsulfonyl-3-methyl-5-[3-methyl-6-(trifluoromethyl)imidazo[4,5-c]pyridin-2-yl]benzimidazol-2-one] | ≥ 80% | ≥ 80% | ≥ 80% | ≥ 80% | ≥ 80% | ≥ 80% | – | – | – | –
– | CCn1c(=O)n(C)c2cc(-c3nc4cc(C(F)(F)F)cnc4n3C)c(S(=O)(=O)CC)cc21 [Compound P5, 1-ethyl-6-ethylsulfonyl-3-methyl-5-[3-methyl-6-(trifluoromethyl)imidazo[4,5-b]pyridin-2-yl]benzimidazol-2-one] | ≥ 80% | ≥ 80% | ≥ 80% | ≥ 80% | ≥ 80% | ≥ 80% | ≥ 80% | ≥ 80% | ≥ 80% | –
– | CCSc1cc2c(cc1-c1nc3cc(C(F)(F)F)cnc3n1C)n(CC)c(=O)n2C [Compound P7, 1-ethyl-5-ethylsulfanyl-3-methyl-6-[3-methyl-6-(trifluoromethyl)imidazo[4,5-b]pyridin-2-yl]benzimidazol-2-one] | ≥ 80% | – | – | ≥ 80% | – | ≥ 80% | – | – | – | –
– | CCS(=O)(=O)c1cc2c(nc1-c1nc3cc(C(F)(F)F)ncc3n1C)n(C)c(=O)n2C [Compound P8, 6-ethylsulfonyl-1,3-dimethyl-5-[3-methyl-6-(trifluoromethyl)imidazo[4,5-c]pyridin-2-yl]imidazo[4,5-b]pyridin-2-one] | ≥ 80% | ≥ 80% | ≥ 80% | ≥ 80% | ≥ 80% | – | – | ≥ 80% | – | –
– | CCS(=O)(=O)c1cc2c(cc1-c1nc3cc(C(F)(F)F)cnc3n1C)n(CS(C)(=O)=O)c(=O)n2C [Compound P16, 6-ethylsulfonyl-1-methyl-3-(methylsulfonylmethyl)-5-[3-methyl-6-(trifluoromethyl)imidazo[4,5-b]pyridine-2-yl]benzimidazol-2-one] | – | ≥ 80% | ≥ 80% | ≥ 80% | ≥ 80% | – | – | – | – | –
– | CCS(=O)(=O)c1cc2c(cc1-c1nc3cc(C(F)(F)F)cnc3n1C)n(COC)c(=O)n2C [Compound P18, 5-ethylsulfonyl-1-(methoxy-methyl)-3-methyl-6-[3-methyl-6-(trifluoromethyl)imidazo[4,5-b]pyridine-2-yl]benzimidazol-2-one] | ≥ 80% | ≥ 80% | – | ≥ 80% | ≥ 80% | ≥ 80% | – | – | – | –
– | CCS(=O)(=O)c1cc2c(nc1-c1nc3cc(C(F)(F)F)cnc3n1C)n(C)c(=O)n2C [Compound P22, 6-ethylsulfonyl-1,3-dimethyl-5-[3-methyl-6-(trifluoromethyl)imidazo[4,5-b]pyridine-2-yl]imidazo[4,5-b]pyridine-2-one] | ≥ 80% | ≥ 80% | ≥ 80% | ≥ 80% | ≥ 80% | ≥ 80% | ≥ 80% | ≥ 80% | – | –
– | CCS(=O)(=O)c1cc2c(cc1-c1nc3cc(SC(F)(F)F)ccc3n1C)n(C)c(=O)n2C [Compound P36, 5-ethylsulfonyl-1,3-dimethyl-6-[1-methyl-5-(trifluoromethyl-sulfanyl)benzimidazol-2-yl]benzimidazol-2-one] | – | ≥ 80% | – | ≥ 80% | ≥ 80% | ≥ 80% | – | ≥ 80% | – | ≥ 80%
– | CCS(=O)(=O)c1cc2c(nc1-c1nc3cc(SC(F)(F)F)ccc3n1C)n(C)c(=O)n2C [Compound P38, 6-ethylsulfonyl-1,3-dimethyl-5-[1-methyl-5-(trifluoromethyl-sulfanyl)benzimidazol-2-yl]imidazo[4,5-b]pyridin-2-one] | – | ≥ 80% | ≥ 80% | – | ≥ 80% | ≥ 80% | ≥ 80% | ≥ 80% | – | ≥ 80%
– | CCS(=O)(=O)c1cc2c(nc1-c1nc3cc(S(=O)(=O)C(F)(F)F)ccc3n1C)n(C)c(=O)n2C [Compound P39, 6-ethylsulfonyl-1,3-dimethyl-5-[1-methyl-5-(trifluoromethyl-sulfonyl)benzimidazol-2-yl]imidazo[4,5-b]pyridine-2-one] | – | ≥ 80% | – | ≥ 80% | ≥ 80% | – | ≥ 80% | ≥ 80% | – | ≥ 80%
– | CCS(=O)(=O)c1cc2c(nc1-c1nc3cc([S+]([O-])C(F)(F)F)ccc3o1)n(C)c(=O)n2C (stereo not shown) [Compound P45, 6-ethylsulfonyl-1,3-dimethyl-5-[5-(trifluoromethylsulfinyl)-1,3-benzoxazol-2-yl]imidazo[4,5-b]pyridin-2-one] | – | ≥ 80% | ≥ 80% | ≥ 80% | – | ≥ 80% | ≥ 80% | – | – | ≥ 80%
